Values joined by “and” are separate entries in the source; they are usually repeats but may differ in a detail not shown here. Equal entries are not always repeated.
Assays:
Amyloid A = assay: Study DG-031-201 cross-over trial: Amyloid A in serum; assay type: in vivo, human; details: week 6, p=0.05
Description: Patients who met the study eligebility criteria were enrolled and randomized into 3 different dose-level groups: (1) 64 patients on 250 mg/day therapy with DG-031 (250 mg q.d.), vs placebo; (2) 64 patients on 500 mg/day therapy with DG-031 (250 mg b.i.d.) vs placebo; and (3) 63 patients on 750 mg/day therapy with DG-031 (250 mg t.i.d.) vs placebo. […] All patients received 3 tablets per day. Treatment periods, 4 weeks in duration each, were separated by a 2-week washout period. The placebo tablets were identical in shape, color, form and taste to the active tablets except that they contained no active drug ingredients. Treatment with DG-031 or placebo was in addition to the subject's standard care, including all medications and treatment plan as prescribed by the subject's cardiologist prior to enrolment. A total of 191 subjects were enrolled, with 172 completing all 8 visits or 8 patients short of the target of 180 patients. […]
All data were analyzed according to a pre-established statistical analysis plan (SAP) and by intention-to-treat (ITT). […] The difference between DG-031 and placebo treatment was the primary outcome, assessed separately for each of the biomarkers. […]

[1] = Pharmacokinetics of DG-031 dosing schedules, plasma concentration (studies 201 and 203); details: for Peak concentration with trough concentration of 3 μg/mL maintained: steady-state, both half-lives
Description: Measurements of plasma DG-031 can be carried out by methods that are standard in the art. […] The DG-031 is then measured by liquid chromatography and/or mass spectrometry and the measured concentration is compared to a standard curve.
After completion of the double-blind study reported herein an open-label randomized study was conducted in an independent cohort but with same eligibility criteria and measuring several of the same biomarkers. […] Each patient was on drug for 8 days; there was no placebo group. The primary objective of this study was to determine pharmacokinetic parameters of DG-031 in three different doses, as well as to assess the pharmacokinetic/pharmacodynamic relationship between DG-031, LTB4 and MPO.
The additional phase II study was conducted to compare a 750 mg total daily dose administered in a BID or TID dosing regimen.

[2] = system: MPO release by neutrophils and other cells in human whole blood; assay: In vitro MPO release in human whole blood after ionomycin stimulation; assay type: cell-based
Description: Neutrophils and other cells in human whole blood respond in vitro to activation by a calcium ionophore (e.g., ionomycin), with an increase in LTB4 production and with coupled release of MPO stimulated in part by LTB4 production in the assay. The effect of DG-031 on the capacity for production of LTB4 in vitro after ionomycin stimulation was evaluated at concentrations ranging from 0.1 μM up to 240 μM.

LTE4 in urine = assay: Study DG-031-201: LTE4 in urine; assay type: in vivo, human
Description: (§1) Patients who met the study eligebility criteria were enrolled and randomized into 3 different dose-level groups: (1) 64 patients on 250 mg/day therapy with DG-031 (250 mg q.d.), vs placebo; (2) 64 patients on 500 mg/day therapy with DG-031 (250 mg b.i.d.) vs placebo; and (3) 63 patients on 750 mg/day therapy with DG-031 (250 mg t.i.d.) vs placebo. […] All patients received 3 tablets per day. Treatment periods, 4 weeks in duration each, were separated by a 2-week washout period. The placebo tablets were identical in shape, color, form and taste to the active tablets except that they contained no active drug ingredients. Treatment with DG-031 or placebo was in addition to the subject's standard care, including all medications and treatment plan as prescribed by the subject's cardiologist prior to enrolment. A total of 191 subjects were enrolled, with 172 completing all 8 visits or 8 patients short of the target of 180 patients.
The primary objective was to determine whether the FLAP inhibitor has a statistically significant effect, compared to placebo, on one or more biomarkers of MI risk, including: (1) ionomycin-induced LTB4 and MPO release by neutrophils ex vivo; (2) MPO, CRP, N-tyrosine, Lp-PLA2 or amyloid A in serum, or (3) LTE4 in urine. The secondary objective was to determine whether the effect of DG-031 was dose-dependent. The tertiary objective was to assess other biomarkers (See Results). Evaluation of safety and tolerability of the drug was also a primary endpoint.
All data were analyzed according to a pre-established statistical analysis plan (SAP) and by intention-to-treat (ITT). Each arm of the study, as well as pooled sets (combining dose levels), was considered for the primary analysis. Each such set is an AB/BA cross-over design and in the primary analysis of efficacy, the levels of biomarkers of MI risk at the end of the treatment periods (visits 4 and 7) were used as primary response variables. The difference between DG-031 and placebo treatment was the primary outcome, assessed separately for each of the biomarkers. […]

[3] = Effect of a high fat meal on DG-031 pharmacokinetics; assay type: in vivo, human; details: administration with a high fat meal
Excerpt: In the context of treatment of a single individual, a steady state concentration may be expected to fluctuate from day-to-day with variations in the individual's diet, level activity, state of health, co-administration of other medications, and the like. DG-031 is preferably administered with food to improve adsorption. […] In this context, the steady state concentration for an individual refers to an average concentration taken at multiple time points, to adjust for such fluctuation.

LDL cholesterol = assay: Study DG-031-201: LDL cholesterol; assay type: in vivo, human; details: highest dose; [4%,12%], p<0.001
Description: as §1
12% for MPO ([2%,21%], p=0.02) at the 750 mg/day dose of DG-031. […] Urine levels of LTE4 increased by 27% in response to the highest dose of DG-031 ([15%,40%], p<0.001). Significant correlation was observed between the change of LTB4 and MPO production (r=0.62 [0.51,0.70], p<0.001) within a period, also when considering only those taking drug where the range of these changes were larger. Correlation was also observed for these variables at baseline. […]

[4] = Clinical studies, safety and tolerability in CAD patients; assay type: in vivo, human
Description: Previous clinical studies administered the dosages of DG-031 either in a single dose (QD) or twice a day (BID)
A total daily dose of 750 mg, dosed at 250 mg TID, provides a preferable PK/PD relationship (inhibition of LTB4) and efficacy in terms of lowering other biomarkers of MI risk (i.e. MPO and CRP).

## O=C(O)[C@@H](c1ccc(OCc2ccc3ccccc3n2)cc1)C1CCCC1 [DG-031, (R)-(+)-alpha-cyclopentyl-4-(2-quinolinylmethoxy)-Benzeneacetic acid]
Amyloid A
  Reduction of SAA: 15%
[1]; 250 mg TID
  Minimum plasma concentration maintained: ~7 µM
  Peak concentrations of DG-031: about 10 μg/ml and ~28 μM
  Steady state Cmin plasma concentration: 2000 to 3000 ng/mL
[1]; 250 mg TID vs 375 mg BID, study 203
  Calculated AUC24h: somewhat higher for 250 mg TID than for 375 mg BID
[1]; 375 mg BID vs 250 mg TID, study 203
  Cmin: slightly higher for the TID dosing regimen
[1]; BID doses
  Peak concentration with trough concentration of 3 μg/mL maintained: 14 µg/mL
[1]; BID dosing, calculated for a 2.5 hour half-life (FIG. 4)
  Peak concentration required to keep steady-state concentration above 3 μg/ml: ~30 µg/mL
[1]; TID doses
  Peak concentration with trough concentration of 3 μg/mL maintained: 7 to 8 µg/mL
[1]; TID dosing, calculated for a 2.5 hour half-life
  Peak plasma concentration required to keep steady-state concentration above 3 μg/ml: ~11 µg/mL
[1]; in vivo
  Drug required with TID dosing relative to BID schedule to maintain the minimum concentration: about 70%
  Share of total exposure of the fraction with the slower half-life: about 25%
[2]
  Concentration at which MPO release is maximally inhibited in vitro: ~2 μg/ml and about 6 μM
LTE4 in urine; difference visit 2 to visit 5, 500 and 750 mg/day vs placebo cohort
  Carry-over effect, LTE4 in urine: −0.06
LTE4 in urine; highest dose, [15%,40%], p<0.001
  Increase of urine levels of LTE4: 27%
LTE4 in urine; pooled dose set 500 mg and 750 mg, [13%,30%]
  Increase of urine levels of LTE4: 21%
[3]
  Increase in AUC: 30%
  Increase in Cmax: 150%
  Tmax: no effect
  half-life: shorter half-life
LDL cholesterol
  Increase in LDL cholesterol: 8%
[4]; 250 mg QD, 375 mg QD, 250 mg BID, 375 mg BID and 250 mg TID
  Safety and tolerability: safe and well tolerated
[4]; total daily doses 375 mg and 750 mg, less than 8 days
  Safety and tolerability: safe and well tolerated
[4]; total daily doses 250, 500 and 750 mg, 128 days
  Safety and tolerability: safe and well tolerated
